Data on 31 compounds can be found in patent publication US8148367B2 (Takeda Pharmaceutical Company Limited, priority 2008, dated 2012).

The experiment addresses T1, Recombinant human renin (Homo sapiens, UniProt P00797).
T1 construct: isolate the active form (residues 67-406); made in house; host or cells: FreeStyle 293-F cells, transient expression of pcDNA3.1(+)/hREN
T1 sequence (P00797 67-406): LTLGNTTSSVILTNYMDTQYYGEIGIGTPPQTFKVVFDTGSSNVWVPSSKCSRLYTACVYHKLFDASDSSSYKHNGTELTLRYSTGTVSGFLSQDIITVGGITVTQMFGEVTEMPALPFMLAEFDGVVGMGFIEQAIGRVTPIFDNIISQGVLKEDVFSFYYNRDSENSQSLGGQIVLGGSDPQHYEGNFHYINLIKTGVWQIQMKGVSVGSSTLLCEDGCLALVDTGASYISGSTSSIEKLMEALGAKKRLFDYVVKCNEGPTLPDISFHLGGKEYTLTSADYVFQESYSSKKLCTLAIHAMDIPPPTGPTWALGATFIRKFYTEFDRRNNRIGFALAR
The experiment is described as follows: In vitro enzymatic activity assay of renin inhibitors (fluorescence, QXL520/HiLyteFluo488 peptide substrate). As to conditions: recombinant human renin 3 nM, 1 μM substrate, pre-incubated 10 minutes at 37° C., incubation one hour, pH 7.4, 5% DMSO; read-out: IC50 of Exemplified Compounds Against Renin. It is filed as biochemical.

Where only a bound is given, the exact number is not on record here.

The IC50 is the concentration at which inhibition is half-maximal. With `O=C(c1c(-c2ccccc2)n(C2CCOCC2)c(=O)n1Cc1ccccc1)N1CCNCC1` [Example 81, 1-Benzyl-4-phenyl-5-(piperazine-1-carbonyl)-3-(tetrahydro-2H-pyran-4-yl)-1H-imidazol-2(3H)-one], the half-maximal inhibitory concentration (IC50) is greater than 1 µM. With `O=C(c1c(-c2ccccc2)n(-c2ccccc2)c(=O)n1Cc1cccc2cccnc12)N1CCNCC1` [Example 82, 1,5-Diphenyl-4-(piperazine-1-carbonyl)-3-(quinolin-8-ylmethyl)-1H-imidazol-2(3H)-one] the figure was greater than 1 µM; with `COc1cccc(Cn2c(C(=O)N3CCNCC3)c(-c3ccccc3)n(-c3ccccc3)c2=O)c1` [Example 83, 1-(3-methoxybenzyl)-3,4-diphenyl-5-(piperazine-1-carbonyl)-1H-imidazol-2(3H)-one], 0.1 to 0.5 µM.

With `O=C(c1c(-c2ccccc2)n(-c2ccccc2)c(=O)n1Cc1ccc2ccccc2c1)N1CCNCC1` [Example 84, 1-(Naphthalen-2-ylmethyl)-3,4-diphenyl-5-(piperazine-1-carbonyl)-1H-imidazol-2(3H)-one], the IC50 was 0.1 to 0.5 µM.

For `N#Cc1ccccc1Cn1c(C(=O)N2CCNCC2)c(-c2ccccc2)n(-c2ccccc2)c1=O` [Example 85, 2-((2-Oxo-3,4-diphenyl-5-(piperazine-1-carbonyl)-2,3-dihydro-1H-imidazol-1-yl)methyl)benzonitrile], the IC50 was greater than 1 µM.

Consider `COc1cc(Cn2c(C(=O)N3CCNCC3)c(-c3ccccc3)n(-c3ccccc3)c2=O)cc(OC)c1` [Example 86, 1-(3,5-Dimethoxybenzyl)-3,4-diphenyl-5-(piperazine-1-carbonyl)-1H-imidazol-2(3H)-one], for which the IC50 fell in the range of 0.1 to 0.5 µM. For the compound `O=C(c1c(-c2ccccc2)n(-c2ccccc2)c(=O)n1Cc1ccc(Cl)c(OC(F)(F)F)c1)N1CCNCC1` [Example 87, 1-(4-Chloro-3-(trifluoromethoxy)benzyl)-3,4-diphenyl-5-(piperazine-1-carbonyl)-1H-imidazol-2(3H)-one], the IC50 fell in the range of 0.1 to 0.5 µM. Under `O=C(c1c(-c2ccccc2)n(-c2ccccc2)c(=O)n1Cc1cccc(-n2cccc2)c1)N1CCNCC1` [Example 88, 1-(3-(1H-Pyrrol-1-yl)benzyl)-3,4-diphenyl-5-(piperazine-1-carbonyl)-1H-imidazol-2(3H)-one] stands less than 0.1 µM; under `O=C(c1[nH]c(=O)n(C2CCCCC2)c1-c1ccccc1)N1CCCNCC1` [Example 89, 1-Cyclohexyl-4-(1,4-diazepane-1-carbonyl)-5-phenyl-1H-imidazol-2(3H)-one], greater than 1 µM. With `O=C(c1c(-c2ccccc2)n(C2CCCCC2)c(=O)n1Cc1cc(Cl)nc(N2CCOCC2)c1)N1CCNCC1` [Example 90, 1-((2-Chloro-6-morpholinopyridin-4-yl)methyl)-3-cyclohexyl-4-phenyl-5-(piperazine-1-carbonyl)-1H-imidazol-2(3H)-one] the figure was 0.5 to 1 µM; with `O=C(c1c(-c2ccccc2)n(C2CCCCC2)c(=O)n1Cc1cc(-c2cn[nH]c2)nc(-c2cn[nH]c2)c1)N1CCNCC1` [Example 91, 1-Cyclohexyl-3-((2,6-di(1H-pyrazol-4-yl)pyridin-4-yl)methyl)-5-phenyl-4-(piperazine-1-carbonyl)-1H-imidazol-2(3H)-one], 0.1 to 0.5 µM; with `COc1cccc(Cn2c(C(=O)N3CCNCC3)c(-c3ccccc3)n(C3CCCN(C(C)=O)C3)c2=O)c1` (stereo not shown) [Example 92, 1-(1-Acetylpiperidin-3-yl)-3-(3-methoxybenzyl)-5-phenyl-4-(piperazine-1 carbonyl)-1H-imidazol-2(3H)-one], greater than 1 µM. With `CC(=O)N1CCCC(n2c(-c3ccccc3)c(C(=O)N3CCNCC3)n(Cc3ccccc3)c2=O)C1` (stereo not shown) [Example 93, 1-(1-Acetylpiperidin-3-yl)-3-benzyl-5-phenyl-4-(piperazine-1-carbonyl)-1H-imidazol-2(3H)-one] the figure was greater than 1 µM; with `CC(=O)N1CCCC(n2c(-c3ccccc3)c(C(=O)N3CCNCC3)[nH]c2=O)C1` (stereo not shown) [Example 94, 1-(1-Acetylpiperidin-3-yl)-5-phenyl-4-(piperazine-1-carbonyl)-1H-imidazol-2(3H)-one], greater than 1 µM; with `O=C(c1ccccc1)N1CCCC(n2c(-c3ccccc3)c(C(=O)N3CCNCC3)n(Cc3ccccc3)c2=O)C1` (stereo not shown) [Example 95, 1-(1-Benzoylpiperidin-3-yl)-3-benzyl-5-phenyl-4-(piperazine-1-carbonyl)-1H-imidazol-2(3H)-one], greater than 1 µM. `O=C(c1c(-c2ccccc2)n(C2CCCN(S(=O)(=O)c3ccccc3)C2)c(=O)n1Cc1ccccc1)N1CCNCC1` (stereo not shown) [Example 96, 1-Benzyl-4-phenyl-3-(1-(phenylsulfonyl)piperidin-3-yl)-5-(piperazine-1-carbonyl)-1H-imidazol-2(3H)-one]: the IC50 lay in the range of 0.5 to 1 µM. Take `O=C(c1ccco1)N1CCCC(n2c(-c3ccccc3)c(C(=O)N3CCNCC3)n(Cc3ccccc3)c2=O)C1` (stereo not shown) [Example 97, 1-Benzyl-3-(1-(furan-2-carbonyl)piperidin-3-yl)-4-phenyl-5-(piperazine-1-carbonyl)-1H-imidazol-2(3H)-one]: the IC50 is greater than 1 µM. In the case of `O=C(c1[nH]c(=O)n(C2CCCN(S(=O)(=O)c3ccccc3)C2)c1-c1ccccc1)N1CCNCC1` (stereo not shown) [Example 98, 5-Phenyl-1-(1-(phenylsulfonyl)piperidin-3-yl)-4-(piperazine-1-carbonyl)-1H-imidazol-2(3H)-one], the IC50 was in the range of 0.5 to 1 µM.

As for `CC(=O)N1CCCC(n2c(-c3ccccc3)c(C(=O)N3CCNCC3)n(Cc3cccc(Oc4ccccc4)c3)c2=O)C1` (stereo not shown) [Example 99, 1-(1-Acetylpiperidin-3-yl)-3-(3-phenoxybenzyl)-5-phenyl-4-(piperazine-1-carbonyl)-1H-imidazol-2(3H)-one], the IC50 was greater than 1 µM. Under `O=C(c1c(-c2ccccc2)n(C2CCCN(S(=O)(=O)c3ccccc3)C2)c(=O)n1Cc1ccccc1)N1CCNCC1` (stereo not shown) [Example 100, 1-Benzyl-4-phenyl-3-(1-(phenylsulfonyl)piperidin-3-yl)-5-(piperazine-1-carbonyl)-1H-imidazol-2(3H)-one] stands 0.5 to 1 µM; under `O=C(c1c(-c2ccccc2)n(C2CCCN(S(=O)(=O)c3ccccn3)C2)c(=O)n1Cc1ccccc1)N1CCNCC1` (stereo not shown) [Example 101, 1-Benzyl-4-phenyl-5-(piperazine-1-carbonyl)-3-(1-(pyridin-2-ylsulfonyl)piperidin-3-yl)-1H-imidazol-2(3H)-one], greater than 1 µM. Under `O=C(c1c(-c2ccccc2)n(C2CCCN(S(=O)(=O)c3ccccc3)C2)c(=O)n1Cc1cccc(Oc2ccccc2)c1)N1CCNCC1` (stereo not shown) [Example 102, 1-(3-Phenoxybenzyl)-4-phenyl-3-(1-(phenylsulfonyl)piperidin-3-yl)-5-(piperazine-1-carbonyl)-1H-imidazol-2(3H)-one] stands 0.1 to 0.5 µM. In the case of `O=C(c1c(-c2ccccc2)n(C2CCCN(S(=O)(=O)c3ccccn3)C2)c(=O)n1Cc1cccc(Oc2ccccc2)c1)N1CCNCC1` (stereo not shown) [Example 103, 1-(3-Phenoxybenzyl)-4-phenyl-5-(piperazine-1-carbonyl)-3-(1-(pyridin-2-ylsulfonyl)piperidin-3-yl)-1H-imidazol-2(3H)-one], the IC50 lay in the range of 0.1 to 0.5 µM. Regarding `CC(=O)N1CCCC(n2c(-c3ccccc3)c(C(=O)N3CCNC[C@H]3Cc3ccccc3)[nH]c2=O)C1` (stereo partly drawn) [Example 104, 1-(1-Acetylpiperidin-3-yl)-4-((R)-2-benzylpiperazine-1-carbonyl)-5-phenyl-1H-imidazol-2(3H)-one], the 50% inhibitory concentration (IC50) is 0.5 to 1 µM. On to `O=C(c1c(-c2ccccc2)n([C@@H]2CCCC[C@H]2O)c(=O)n1Cc1ccccc1)N1CCNCC1` [Example 105, 1-Benzyl-3-((1R,2R)-2-hydroxycyclohexyl)-4-phenyl-5-(piperazine-1-carbonyl)-1H-imidazol-2(3H)-one], for which the IC50 is greater than 1 µM. Under `O=C(c1c(-c2ccccc2)n([C@@H]2CCCC[C@H]2O)c(=O)n1Cc1cccc(Oc2ccccc2)c1)N1CCNCC1` [Example 106, 1-((1R,2R)-2-Hydroxycyclohexyl)-3-(3-phenoxybenzyl)-5-phenyl-4-(piperazine-1-carbonyl)-1H-imidazol-2(3H)-one] stands 0.1 to 0.5 µM; under `O=C(NC[C@@H]1CNCCN1C(=O)c1[nH]c(=O)n([C@@H]2CCCC[C@H]2O)c1-c1ccccc1)c1ccccc1` [Example 107, N—(((S)-1-(1-((1R,2R)-2-Hydroxycyclohexyl)-2-oxo-5-phenyl-2,3-dihydro-1H-imidazole-4-carbonyl)piperazin-2-yl)methyl)benzamide], 0.5 to 1 µM.

`O=C(NC[C@@H]1CNCCN1C(=O)c1[nH]c(=O)n(C2CCCCC2)c1-c1ccccc1)c1ccccc1` [Example 108, (S)—N-((1-(1-Cyclohexyl-2-oxo-5-phenyl-2,3-dihydro-1H-imidazole-4-carbonyl)piperazin-2-yl)methyl)benzamide]: the IC50 is less than 0.1 µM. With `O=C(c1[nH]c(=O)n(-c2ccccc2)c1-c1ccccc1)N1CCNC[C@H]1Cc1ccccc1` [Example 109, (R)-4-(2-Benzylpiperazine-1-carbonyl)-1,5-diphenyl-1H-imidazol-2(3H)-one] the figure was less than 0.1 µM; with `O=C(c1[nH]c(=O)n(-c2cccc(N3CCOCC3)c2)c1-c1ccccc1)N1CCNC[C@H]1Cc1ccccc1` [Example 110, (R)-4-(2-Benzylpiperazine-1-carbonyl)-1-(3-morpholinophenyl)-5-phenyl-1H-imidazol-2(3H)-one], less than 0.1 µM. Under `O=C(c1[nH]c(=O)n(C2CCCCC2)c1-c1ccccc1)N1CCNC[C@H]1Cc1ccccc1` [Example 111, (R)-4-(2-Benzylpiperazine-1-carbonyl)-1-cyclohexyl-5-phenyl-1H-imidazol-2(3H)-one] stands less than 0.1 µM.
